Results as given in US11547101B2, “Non-human animals having a disruption in a C9ORF72 locus” (Regeneron Pharmaceuticals, Inc., priority 2015, dated 2023).

How the values were obtained:
[1] = test system: cultured wild type motor neurons; assay: Survival of cultured embryonic stem cell-derived wild type motor neurons treated with BMAA (cell counts, trypan blue); type: cell-based, mouse; details: wild type motor neurons in ESMN with BMAA at 0.1-100 μM; FIG. 4
Experimental: Briefly, mouse embryonic stem cells are cultured and differentiated into motor neurons, during an eight-day period. The first day, previously frozen mouse embryonic stem cells are thawed and added to a 15 mL falcon tube with five mL of embryonic stem cell medium (ES medium: DMEM with 15% FBS, 1% pen/strep., 1% glutamine, 1% non-essential amino acids, 1% nucleosides, 0.1% β-mercaptoethanol, 1% sodium-pyruvate, and LIF at 10000 unit/mL), The tube is then centrifuged for five minutes at 800 rpm. The supernatant is aspirated and the cells suspended in 10 mL of ES medium. The cells are then plated on a T75 flask that is coated with 10 mL of 0.1% gelatin and incubated for 30 minutes at 37° C. to facilitate attachment to the flask bottom. The cells are then incubated overnight. The following day the medium exchanged with fresh medium for survival.
The following day medium is aspirated from the flask. The flask is washed with 10 mL of PBS, and then 5 mL of trypsin is added to detach the cells from the bottom of the flask. The cells are incubated for five minutes at 37° C. Detachment is confirmed by checking the flask under a microscope. […]
After three days embryoid bodies (EB) that form are dissociated. […] The cells are then counted using a Countess automatic cell counter (Life Technologies) and 0.5 to 1 million cells are plated with 2 mL ESMN medium per well in each six well plate. […]

C9orf72−/− mice = assay: ALS-like phenotype in aged C9orf72−/− mice given weekly i.p. BMAA (body weight, motor scores, rotarod, open field, catwalk); type: in vivo, mouse; details: 32-week old C9orf72−/− mice, BMAA 500 mg/kg weekly i.p. for six weeks; FIGS. 6A-6E
Experimental: In another experiment, aged (i.e., 32-week old) wild type and C9orf72^−/− mice were administered weekly i.p. injections of BMAA (500 mg/kg) or PBS (control) for six weeks. Body weight measurements were recorded each week up to 38 weeks starting at day zero (i.e., 32 weeks). Analysis of motor impairment via rotarod, open field locomotor, and catwalk testing (as described above) were also recorded at the start of the experiment (week 0, […]) and every other week up to 38 weeks. Table 6 sets forth the scoring methodology related to motor impairment, tremor and rigidity of animals during testing.

C9orf72−/− motor neurons = assay: Oxidative stress (ROS, CellROX Green) of cultured C9orf72−/− motor neurons exposed to BMAA; type: cell-based, mouse; details: 100 mM BMAA, measured at days 1 and 7, FIG. 7
Experimental: In another experiment, motor neurons from C9orfF72^−/− mice were cultured as described above (see also FIG. 7) and treated with antisense oligonucleotides that selectively target sense strand repeat-containing RNAs and reduce sense-oriented RNA foci without affecting overall C9orf72 expression. Treatment was followed by addition of 100 mM BMAA. Survival and oxidative stress of cultured motor neurons were measured at days 1 and 7. Briefly, oxidative stress of plated embryonic stem cell-derived motor neurons (described above) was assessed by measuring the Reactive Oxygen Species (ROS) levels in the cells using Life Technologies' CellROX Oxidative Stress Green reagent at a final concentration of 5 μM and incubating for 30 minutes at 37° C. After incubation, cells were washed three times with PBS and fluorescence was measured using a standard microplate fluorometry.

wild type mice = assay: ALS-like phenotype in wild type mice given weekly i.p. BMAA (body weight, rotarod, open field, catwalk); type: in vivo, mouse; details: BMAA 500 mg/kg weekly i.p. for six weeks, FIGS. 5A-5D
Experimental: In another experiment, wild type mice were administered weekly i.p. injections of BMAA (500 mg/kg) or PBS (control) for six weeks starting at week 1 (FIG. 5A, top). Body weight measurements were recorded each week up to 6 weeks, week 14 and week 18. Analysis of motor impairment via rotarod, open field locomotor, and catwalk testing (as described above) were recorded at the start of the experiment (week 0, 10-weeks old), every other week up to 6 weeks, week 14 and week 18.

CNC[C@H](N)C(=O)O [BMAA, β-Methylamino-L-alanine]
survival of cultured motor neurons (percentage of live neurons to control) [1]: kills cultured wild type motor neurons in a dose-dependent manner | effect on ALS-like motor phenotype (C9orf72−/− mice): mildly exacerbates | effect on increased inactivity and gait abnormalities (C9orf72−/− mice): does not affect | oxidative stress (Reactive Oxygen Species levels) (C9orf72−/− motor neurons): increased oxidative stress | induction of ALS-like phenotype (wild type mice): did not induce an ALS-like phenotype
